Laboratory results from US9771369B2, “Compounds and methods for kinase modulation, and indications therefor” (Plexxikon Inc., priority 2014, dated 2017).

Molecular target: c-Kit kinase (Homo sapiens (Human), UniProt P10721)
Assay: c-Kit biochemical assay (AlphaScreen kinase activity)
Protocol: Assays for biochemical cell-based activity of c-kit kinase are known in the art, for example, as described in U.S. Pat. Nos. 7,498,342 and 7,846,941, the disclosures of which are hereby incorporated by reference as it relates to such assays. The c-kit (or kinase domain thereof) is an active kinase in AlphaScreen. IC50 values are determined with respect to inhibition of c-Kit kinase activity, where inhibition of phosphorylation of a peptide substrate is measured as a function of compound concentration. Compounds to be tested were dissolved in DMSO to a concentration of 30 mM. These were diluted 30 μl into 130 μl of DMSO (4 mM) and 1 μl was added to an assay plate. These were then serially diluted 1:3 (50 μl to 100 μl DMSO) for a total of 8 points. Plates were prepared such that each kinase reaction is 30 μl in 1× kinase buffer (50 mM HEPES, pH 7.2, 5 mM MgCl2, 5 mM MnCl2, 0.01% NP-40, 0.2% BSA), 5% DMSO and 10 μM ATP. Substrate was 100 nM biotin-(E4Y)3 (Open Source Biotech, Inc.). C-kit kinase was at 0.1 ng per sample. After incubation of the kinase reaction for 1 hour at room temperature, 5 μl of donor beads (Streptavidin coated beads (Perkin Elmer Life Science) final concentration 1 μg/ml) in stop buffer (50 mM EDTA in 1× kinase buffer) was added, the sample was mixed and incubated for 30 minutes at room temperature before adding […] of acceptor beads (PY30 coated beads (Perkin Elmer Life Science) final concentration 1 μg/ml) in stop buffer. The samples were incubated for 60 minutes at room temperature and the signal per well was read on AlphaQuest reader. Phosphorylated substrate results in binding of the PY30 antibody and association of the donor and acceptor beads such that signal correlates with kinase activity. The signal vs. compound concentration was used to determine the IC50.
Compounds were also tested using a similar assay with a 10-fold higher ATP concentration. For these samples, compounds to be tested were dissolved in DMSO to a concentration of 30 mM. These were diluted 30 μl into 130 μl of DMSO (4 mM) and 1 μl was added to an assay plate. These were then serially diluted 1:3 (50 μl to 100 μl DMSO) for a total of 8 points. Plates were prepared such that each kinase reaction is 30 μl in 1× kinase buffer (25 mM HEPES, pH 7.5, 2 mM MgCl2, 2 mM MnCl2, 0.01% […], 1 mM DTT, and 0.001% BSA), 5% DMSO and 100 μM ATP. Substrate was 30 nM biotin-(E4Y)10 (Upstate Biotech, Cat#12-440). C-kit kinase was at 1 ng per sample. After incubation of the kinase reaction for 1 hour at room temperature, 5 μl of donor beads (Streptavidin coated beads (Perkin Elmer Life Science) final concentration 10 μg/ml) in stop buffer (25 mM HEPES pH 7.5, 100 mM EDTA, 0.3% BSA) was added, the sample was mixed and incubated for 30 minutes at room temperature before adding 5 μl of acceptor beads (PY30 coated beads (Perkin Elmer Life Science) final concentration 10 μg/ml) in stop buffer. The samples were incubated for 60 minutes at room temperature and the signal per well was read on AlphaQuest or Envision reader (Perkin Elmer Life Science). Phosphorylated substrate results in binding of the PY30 antibody and association of the donor and acceptor beads such that signal correlates with kinase activity. The signal vs. compound concentration was used to determine the IC50.
The c-kit enzyme used in the above assay was either obtained from Cell Signaling Technology (Cat. #7754) or was prepared as follows: A plasmid encoding kit (DNA and encoded protein sequences shown below) was engineered using common polymerase chain reaction (PCR) methods. Complementary DNA cloned from various human tissues were purchased from Invitrogen, and these were used as substrates in the PCR reactions. Specific custom synthetic oligonucleotide primers were designed to initiate the PCR product, and also to provide the appropriate restriction enzyme cleavage sites for ligation with the plasmids. […]

Chain of c-Kit kinase (P10721 26-976): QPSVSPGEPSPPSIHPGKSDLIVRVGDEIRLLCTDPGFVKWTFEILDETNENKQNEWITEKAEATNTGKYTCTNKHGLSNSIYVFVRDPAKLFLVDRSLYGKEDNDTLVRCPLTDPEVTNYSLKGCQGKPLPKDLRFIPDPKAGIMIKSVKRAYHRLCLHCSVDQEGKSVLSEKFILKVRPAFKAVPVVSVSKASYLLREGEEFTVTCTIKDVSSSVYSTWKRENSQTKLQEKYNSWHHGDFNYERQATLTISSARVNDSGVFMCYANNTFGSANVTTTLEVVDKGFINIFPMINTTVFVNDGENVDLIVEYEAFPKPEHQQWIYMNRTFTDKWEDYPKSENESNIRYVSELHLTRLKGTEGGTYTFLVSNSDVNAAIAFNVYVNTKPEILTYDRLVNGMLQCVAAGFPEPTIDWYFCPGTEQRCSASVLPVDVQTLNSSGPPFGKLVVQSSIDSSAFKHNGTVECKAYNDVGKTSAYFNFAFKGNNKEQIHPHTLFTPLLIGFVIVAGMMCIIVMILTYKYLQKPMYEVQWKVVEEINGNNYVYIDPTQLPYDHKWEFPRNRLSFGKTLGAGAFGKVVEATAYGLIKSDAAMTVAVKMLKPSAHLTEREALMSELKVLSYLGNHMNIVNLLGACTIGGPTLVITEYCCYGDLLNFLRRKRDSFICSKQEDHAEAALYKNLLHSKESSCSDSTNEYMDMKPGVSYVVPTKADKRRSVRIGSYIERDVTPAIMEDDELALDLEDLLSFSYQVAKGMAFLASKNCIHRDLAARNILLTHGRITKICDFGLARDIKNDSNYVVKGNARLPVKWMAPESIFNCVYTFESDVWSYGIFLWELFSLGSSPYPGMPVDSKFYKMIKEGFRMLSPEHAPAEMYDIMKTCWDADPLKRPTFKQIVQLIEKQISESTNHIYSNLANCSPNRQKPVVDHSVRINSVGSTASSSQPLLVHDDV

`Cc1nc(C2CCN(c3ncnc4[nH]c(-c5cnn(C(F)F)c5)cc34)CC2)[nH]c1-c1ccc(OC(F)F)cc1` [P-3115, 4-[4-[5-[4-(difluoromethoxy)phenyl]-4-methyl-1H-imidazol-2-yl]-1-piperidyl]-6-[1-(difluoromethyl)pyrazol-4-yl]-7H-pyrrolo[2,3-d]pyrimidine] and `Cc1nc(C2CCN(c3ncnc4[nH]c(-c5cnn(C(F)F)c5)cc34)CC2)[nH]c1-c1ccc(OC(F)(F)F)cc1` [P-3116, 6-[1-(difluoromethyl)pyrazol-4-yl]-4-[4-[4-methyl-5-[4-(trifluoromethoxy)phenyl]-1H-imidazol-2-yl]-1-piperidyl]-7H-pyrrolo[2,3-d]pyrimidine] fall in the same range of IC50: 0.0001 to 1 µM for the first, 0.0001 to 1 µM for the second.

`COc1cc(-c2cc3c(N4CCC(c5nc(C)c(-c6ccc(C)s6)[nH]5)CC4)ncnc3[nH]2)ccn1` [P-3117, 6-(2-methoxy-4-pyridyl)-4-[4-[4-methyl-5-(5-methyl-2-thienyl)-1H-imidazol-2-yl]-1-piperidyl]-7H-pyrrolo[2,3-d]pyrimidine] and `Cc1ccc(-c2[nH]c(C3CCN(c4ncnc5[nH]c(-c6ccc(F)cc6)cc45)CC3)nc2C)s1` [P-3118, 6-(4-fluorophenyl)-4-[4-[4-methyl-5-(5-methyl-2-thienyl)-1H-imidazol-2-yl]-1-piperidyl]-7H-pyrrolo[2,3-d]pyrimidine] fall in the same range of IC50: 0.0001 to 1 µM for the first, 0.0001 to 1 µM for the second.

`Cc1nc(C2CCN(c3ncnc4[nH]c(-c5ccc(F)cc5)cc34)CC2)[nH]c1-c1ccc(Cl)s1` [P-3119, 4-[4-[5-(5-chloro-2-thienyl)-4-methyl-1H-imidazol-2-yl]-1-piperidyl]-6-(4-fluorophenyl)-7H-pyrrolo[2,3-d]pyrimidine] and `Cc1nc(C2CCN(c3ncnc4[nH]c(-c5ccc(F)cc5)cc34)CC2)[nH]c1-c1ccc(C(F)(F)F)cc1` [P-3136, 6-(4-fluorophenyl)-4-[4-[4-methyl-5-[4-(trifluoromethyl)phenyl]-1H-imidazol-2-yl]-1-piperidyl]-7H-pyrrolo[2,3-d]pyrimidine] fall in the same range of IC50: 1 to 10 µM for the first, 1 to 10 µM for the second.

`Cc1cc2c(N3CCC(c4nc(C)c(-c5ccc6c(c5)OCO6)[nH]4)CC3)ncnc2[nH]1` [P-3120, 4-[4-[5-(1,3-benzodioxol-5-yl)-4-methyl-1H-imidazol-2-yl]-1-piperidyl]-6-methyl-7H-pyrrolo[2,3-d]pyrimidine] and `Cc1cc2c(N3CCC(c4nc(C)c(-c5ccc6c(c5)OCCO6)[nH]4)CC3)ncnc2[nH]1` [P-3121, 4-[4-[5-(2,3-dihydro-1,4-benzodioxin-6-yl)-4-methyl-1H-imidazol-2-yl]-1-piperidyl]-6-methyl-7H-pyrrolo[2,3-d]pyrimidine] fall in the same range of IC50: 1 to 10 µM for the first, 1 to 10 µM for the second.

First: Cc1nn(C)cc1-c1cc2c(N3CCC(c4nc(C)c(-c5ccc(OC(F)(F)F)cc5)[nH]4)CC3)ncnc2[nH]1 [P-3122, 6-(1,3-dimethylpyrazol-4-yl)-4-[4-[4-methyl-5-[4-(trifluoromethoxy)phenyl]-1H-imidazol-2-yl]-1-piperidyl]-7H-pyrrolo[2,3-d]pyrimidine]
Second: COc1ccc(-c2[nH]c(C3CCN(c4ncnc5[nH]c(C)cc45)CC3)nc2C)cc1 [P-3130, 4-[4-[5-(4-methoxyphenyl)-4-methyl-1H-imidazol-2-yl]-1-piperidyl]-6-methyl-7H-pyrrolo[2,3-d]pyrimidine]
The IC50 of the first is lower: 0.0001 to 1 µM for the first, 1 to 10 µM for the second. The first is the more potent here.

`COc1cccc(-c2[nH]c(C3CCN(c4ncnc5[nH]c(-c6ccnc(OC)c6)cc45)CC3)nc2C(F)(F)F)c1` [P-3123, 4-[4-[5-(3-methoxyphenyl)-4-(trifluoromethyl)-1H-imidazol-2-yl]-1-piperidyl]-6-(2-methoxy-4-pyridyl)-7H-pyrrolo[2,3-d]pyrimidine] and `COc1cc(-c2cc3c(N4CCC(c5nc(C(F)(F)F)c(-c6ccc(C)cc6)[nH]5)CC4)ncnc3[nH]2)ccn1` [P-3134, 6-(2-methoxy-4-pyridyl)-4-[4-[5-(p-tolyl)-4-(trifluoromethyl)-1H-imidazol-2-yl]-1-piperidyl]-7H-pyrrolo[2,3-d]pyrimidine] fall in the same range of IC50: 0.0001 to 1 µM for the first, 0.0001 to 1 µM for the second.

First: COc1cccc(-c2[nH]c(C3CCN(c4ncnc5[nH]c(-c6ccc(C#N)cc6)cc45)CC3)nc2C(F)(F)F)c1 [P-3124, 4-[4-[4-[5-(3-methoxyphenyl)-4-(trifluoromethyl)-1H-imidazol-2-yl]-1-piperidyl]-7H-pyrrolo[2,3-d]pyrimidin-6-yl]benzonitrile]
Second: Cc1nc(C2CCN(c3ncnc4[nH]c(-c5ccc(C#N)cc5)cc34)CC2)[nH]c1-c1ccc(C(F)(F)F)cc1 [P-3137, 4-[4-[4-[4-methyl-5-[4-(trifluoromethyl)phenyl]-1H-imidazol-2-yl]-1-piperidyl]-7H-pyrrolo[2,3-d]pyrimidin-6-yl]benzonitrile]
The IC50 of the first is lower: 0.0001 to 1 µM for the first, 1 to 10 µM for the second. The first is the more potent here.

First: CCOc1ccc(-c2[nH]c(C3CCN(c4ncnc5[nH]c(C)cc45)CC3)nc2C)cc1C [P-3125, 4-[4-[5-(4-ethoxy-3-methyl-phenyl)-4-methyl-1H-imidazol-2-yl]-1-piperidyl]-6-methyl-7H-pyrrolo[2,3-d]pyrimidine]
Second: CCOc1cc(-c2[nH]c(C3CCN(c4ncnc5[nH]c(C)cc45)CC3)nc2C)ccc1C [P-3126, 4-[4-[5-(3-ethoxy-4-methyl-phenyl)-4-methyl-1H-imidazol-2-yl]-1-piperidyl]-6-methyl-7H-pyrrolo[2,3-d]pyrimidine]
The IC50 of the first is higher: 1 to 10 µM for the first, 0.0001 to 1 µM for the second.

`Cc1cc2c(N3CCC(c4nc(C)c(-c5ccc6c(c5)OC(F)(F)O6)[nH]4)CC3)ncnc2[nH]1` [P-3127, 4-[4-[5-(2,2-difluoro-1,3-benzodioxol-5-yl)-4-methyl-1H-imidazol-2-yl]-1-piperidyl]-6-methyl-7H-pyrrolo[2,3-d]pyrimidine] and `COc1ccc(-c2[nH]c(C3CCN(c4ncnc5[nH]c(C)cc45)CC3)nc2C)cc1C` [P-3128, 4-[4-[5-(4-methoxy-3-methyl-phenyl)-4-methyl-1H-imidazol-2-yl]-1-piperidyl]-6-methyl-7H-pyrrolo[2,3-d]pyrimidine] fall in the same range of IC50: 1 to 10 µM for the first, 1 to 10 µM for the second.

`COc1cc(-c2[nH]c(C3CCN(c4ncnc5[nH]c(C)cc45)CC3)nc2C)ccc1C` [P-3129, 4-[4-[5-(3-methoxy-4-methyl-phenyl)-4-methyl-1H-imidazol-2-yl]-1-piperidyl]-6-methyl-7H-pyrrolo[2,3-d]pyrimidine] and `COc1cccc(-c2[nH]c(C3CCN(c4ncnc5[nH]c(C)cc45)CC3)nc2C)c1` [P-3131, 4-[4-[5-(3-methoxyphenyl)-4-methyl-1H-imidazol-2-yl]-1-piperidyl]-6-methyl-7H-pyrrolo[2,3-d]pyrimidine] fall in the same range of IC50: 1 to 10 µM for the first, 1 to 10 µM for the second.

`Cc1nc(C2CCN(c3ncnc4[nH]c(-c5ccc(C#N)cc5)cc34)CC2)[nH]c1-c1ccc2c(c1)OCCO2` [P-3132, 4-[4-[4-[5-(2,3-dihydro-1,4-benzodioxin-6-yl)-4-methyl-1H-imidazol-2-yl]-1-piperidyl]-7H-pyrrolo[2,3-d]pyrimidin-6-yl]benzonitrile] and `Cc1nc(C2CCN(c3ncnc4[nH]c(-c5cnn(C(F)F)c5)cc34)CC2)[nH]c1-c1ccc2c(c1)OCCO2` [P-3133, 6-[1-(difluoromethyl)pyrazol-4-yl]-4-[4-[5-(2,3-dihydro-1,4-benzodioxin-6-yl)-4-methyl-1H-imidazol-2-yl]-1-piperidyl]-7H-pyrrolo[2,3-d]pyrimidine] fall in the same range of IC50: 0.0001 to 1 µM for the first, 0.0001 to 1 µM for the second.

`Cc1ccc(-c2[nH]c(C3CCN(c4ncnc5[nH]c(-c6ccc(F)cc6)cc45)CC3)nc2C(F)(F)F)cc1` [P-3135, 6-(4-fluorophenyl)-4-[4-[5-(p-tolyl)-4-(trifluoromethyl)-1H-imidazol-2-yl]-1-piperidyl]-7H-pyrrolo[2,3-d]pyrimidine] gave an IC50 of 0.0001 to 1 µM.
